# Earlier results in patent US20100112181A1, “Recovery of Antioxidants from Decaffeination Process” (priority 2008, published 2010).
# Conditions: reported by K. Iwai et al., 2004
substance,measurement,value
dicaffeoylquinic acids [di-CQA's],antioxidant activity relative to CQA's (in words),higher antioxidant activity than the CQA's
